Reference: patent publication US11667652B2, “MCL1 inhibitors” (Gilead Sciences, Inc., priority 2019, dated 2023)
Like-named read-outs stand apart in the source and are kept apart here.

Tests used:
SKBR3 cells = assay: SKBR3 Cell Viability Assay; format: cell-based; details: CellTiter Glo, read-out: MCL1 CV SKBR3 EC50
Procedure, shortened: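 SKBR3 cells (6,000/well, McCoy's 5A + 10% FBS) were added onto pre-spotted serial compound dilutions and incubated 72 h at 37° C, 5% CO2. Viability was read by CellTiter-Glo luminescence, with % inhibition normalised to DMSO (negative) and 10 μM puromycin (positive).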

MCL1/Bim = MCL1/Bim (Homo sapiens (Human), UniProt Q07820); assay: MCL1/Bim Binding AlphaLISA Assay; details: recombinant human 6xHis-MCL1 (171-327), biotinylated Bim peptide (51-76)
Chain of MCL1/Bim (Q07820 171-327): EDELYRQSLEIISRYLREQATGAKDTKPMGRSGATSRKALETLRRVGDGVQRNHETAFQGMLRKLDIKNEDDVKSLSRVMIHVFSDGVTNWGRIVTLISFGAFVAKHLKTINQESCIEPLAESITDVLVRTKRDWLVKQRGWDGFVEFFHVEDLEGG
Procedure, shortened: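 AlphaLISA with 0.0625 nM human 6×His-MCL1 (171-327) and 0.0625 nM biotinylated Bim (51-76) peptide in 20 mM Hepes pH 7.5, 150 mM NaCl, 0.002% Brij 35, 1 mM DTT, 0.01% BSA. Compound preincubated with MCL1 1 h, Bim added 2 h, then acceptor and donor beads 1 h each; % inhibition versus DMSO and no-protein/peptide controls.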

[1] = Homo sapiens, SK-BR-3, 72 hours

Compound	EC50 (SKBR3 cells; 72 hours) [nM]	IC50 (MCL1/Bim) [nM]	EC50 (SKBR3 cells; [1]) [nM]
COc1nn(C)cc1C(=O)N[S@@]1(=O)=NC(=O)c2ccc3c(c2)N(C[C@@H]2CC[C@H]2[C@@H](OC)CC2CC(CCN(C)C)OC2[C@H](C)C1)C[C@@]1(CCCc2cc(Cl)ccc21)CO3 (stereo partly drawn) [Example 143]	37.5	0.037	–
CO[C@H]1/C=C/C[C@H](C)C[S@@](=O)(NC(=O)[C@H]2C[C@@](C)(O)C2)=NC(=O)c2ccc3c(n2)N(C[C@@H]2CC[C@H]21)C[C@@]1(CCCc2cc(Cl)ccc21)CO3 [Example 190]	–	0.15	306
COc1nn(C)cc1C(=O)N[S@@]1(=O)=NC(=O)c2ccc3c(c2)N(C[C@@H]2CC[C@H]2[C@H](O)/C=C/C[C@H](C)C1)C[C@@]1(CCCc2cc(Cl)ccc21)CO3 [Example 39]	–	0.201	146
CO[C@H]1/C=C/C[C@H](C)C[S@@](=O)(Nc2cncc(C#N)n2)=NC(=O)c2ccc3c(c2)N(C[C@@H]2CC[C@H]21)C[C@@]1(CCCc2cc(Cl)ccc21)CO3 [Example 6]	–	0.891	4390
COc1nn(C)cc1C(=O)N[S@@]1(=O)=NC(=O)c2ccc3c(c2)N(C[C@@H]2CC[C@H]2[C@H]2OCCCC2CC[C@H](C)C1)C[C@@]1(CCCc2cc(Cl)ccc21)CO3 (mixture of isomers) [Example 138]	1050	1.54	–
CCCO[C@H]1/C=C/C[C@H](C)C[S@@](=O)(NC(=O)c2cn(C)nc2OC)=NC(=O)c2ccc3c(c2)N(C[C@@H]2CC[C@H]21)C[C@@]1(CCCc2cc(Cl)ccc21)CO3 (mixture of isomers) [Example 137]	561	1.77	–
COc1nn(C)cc1C(=O)N[S@@]1(=O)=NC(=O)c2ccc3c(c2)N(C[C@@H]2CC[C@H]2[C@@H](OC)C[C@@H]2[C@H](OC[C@H]2C)[C@H](C)C1)C[C@@]1(CCCc2cc(Cl)ccc21)CO3 [Example 145]	178	0.189	–
COc1nn(C)cc1C(=O)N[S@]1(=O)=NC(=O)c2ccc3c(c2)N(C[C@@H]2CC[C@H]2C(=O)/C=C/C[C@H](C)C1)C[C@@]1(CCCc2cc(Cl)ccc21)CO3 [Example 47]	81.9	0.167	–
CO[C@H]1/C=C/C[C@H](C)C[S@@](=O)(Nc2ncnc3c2cnn3C)=NC(=O)c2ccc3c(c2)N(C[C@@H]2CC[C@H]21)C[C@@]1(CCCc2cc(Cl)ccc21)CO3 [Example 4]	–	0.196	240
COc1nn(C)cc1C(=O)N[S@@]1(=O)=NC(=O)c2ccc3c(c2)N(C[C@@H]2CC[C@H]2[C@@H](OCCN2CC(OC)C2)/C=C/C[C@H](C)C1)C[C@@]1(CCCc2cc(Cl)ccc21)CO3 [Example 61]	–	0.136	19.6
CO[C@H]1/C=C/CCC[S@@](=O)(NC(=O)c2cc3n(c2)CCOC3)=NC(=O)c2ccc3c(c2)N(C[C@@H]2CC[C@H]21)C[C@]1(CO3)SCCc2cc(Cl)ccc21 [Example 184]	–	0.26	262
CO[C@H]1/C=C/C[C@H](C)[C@@H](C)[S@@](=O)(NC(=O)c2cc3n(c2)CCOC3)=NC(=O)c2ccc3c(c2)N(C[C@@H]2CC[C@H]21)C[C@]1(CO3)C[C@@H]2C[C@@H]2c2cc(Cl)ccc21 [Example 172]	–	0.605	160
COc1nn(C)cc1C(=O)N[S@@]1(=O)=NC(=O)c2ccc3c(n2)N(C[C@@H]2CC[C@H]2[C@@H](OC)/C=C/[C@@H](OC)[C@H](C)C1)C[C@@]1(CCCc2cc(Cl)ccc21)CO3 [Example 197]	516	0.35	–
CO[C@H]1/C=C/C[C@H](C)C[S@@](=O)(Nc2nc(NCCN3CCOCC3)nc3nn(C)cc23)=NC(=O)c2ccc3c(c2)N(C[C@@H]2CC[C@H]21)C[C@@]1(CCCc2cc(Cl)ccc21)CO3 [Example 20]	–	0.313	41.3
COc1nn(C)cc1C(=O)N[S@@]1(=O)=NC(=O)c2ccc3c(c2)N(C[C@@H]2CC[C@H]2[C@@H](OC)C[C@H]2C[C@H](CCN(C)C)O[C@@H]2[C@H](C)C1)C[C@@]1(CCCc2cc(Cl)ccc21)CO3 [Example 142]	106	0.06	–
CO[C@H]1/C=C/CCC[S@@](=O)(NC(=O)c2cc3n(c2)CCOC3)=NC(=O)c2ccc3c(c2)N(C[C@@H]2CC[C@H]21)C[C@]1(CO3)C[C@@H]2C[C@@H]2c2cc(Cl)ccc21 [Example 174]	–	0.25	354
COc1nn(C)cc1C(=O)N[S@@]1(=O)=NC(=O)c2ccc3c(c2)N(C[C@@H]2CC[C@H]2[C@](CN2CCN4CCOC[C@@H]4C2)(OC)/C=C/C[C@H](C)C1)C[C@@]1(CCCc2cc(Cl)ccc21)CO3 [Example 111]	–	0.211	26.3
CC[C@H]1C/C=C/[C@H](OC)[C@@H]2CC[C@H]2CN2C[C@@]3(CCCc4cc(Cl)ccc43)COc3ccc(cc32)C(=O)N=[S@](=O)(NC(=O)NC2CC2)C1 [Example 42]	233	0.253	–

More lines, in order of falling IC50 (MCL1/Bim), values ahead:

EC50 (SKBR3 cells; 72 hours) [nM]	IC50 (MCL1/Bim) [nM]	EC50 (SKBR3 cells; [1]) [nM]	Compound
–	0.135	69.7	COc1nn(C)cc1C(=O)N[S@@]1(=O)=NC(=O)c2ccc3c(c2)N(C[C@@H]2CC[C@H]2[C@@H](OC)/C=C/[C@](C)(OC)[C@H](C)C1)C[C@@]1(CCCc2cc(Cl)ccc21)CO3 [Example 123]
163	0.112	–	COc1nn(C)cc1C(=O)N[S@@]1(=O)=NC(=O)c2ccc3c(c2)N(C[C@@H]2CC[C@H]2[C@](O)(CC(=O)N2CCN(C4COC4)CC2)/C=C/C[C@H](C)C1)C[C@@]1(CCCc2cc(Cl)ccc21)CO3 [Example 105]
21.7	0.105	–	COc1nn(C)cc1C(=O)N[S@@]1(=O)=NC(=O)c2ccc3c(c2)N(C[C@@H]2CC[C@H]2[C@@H](OCCCN2CCOCC2)/C=C/C[C@H](C)C1)C[C@@]1(CCCc2cc(Cl)ccc21)CO3 [Example 53]
–	0.1	310	CO[C@H]1/C=C/CCC[S@@](=O)(NC(=O)c2cnn(C)c2)=NC(=O)c2ccc3c(c2)N(C[C@@H]2CC[C@H]21)C[C@]1(CO3)C[C@@H]2C[C@@H]2c2cc(Cl)ccc21 [Example 173]
–	0.089	33.8	COc1nn(C)cc1C(=O)N[S@@]1(=O)=NC(=O)c2ccc3c(c2F)N(C[C@@H]2CC[C@H]2[C@@H](OC)/C=C/C[C@H](C)C1)C[C@@]1(CCCc2cc(Cl)ccc21)CO3 [Example 161]
–	0.088	25.4	C[C@@H]1[C@@H](C)C/C=C/[C@H](O)[C@@H]2CC[C@H]2CN2C[C@@]3(CCCc4cc(Cl)ccc43)COc3ccc(cc32)C(=O)N=[S@]1(=O)Nc1ncnc2nn(C)cc12 [Example 34]
–	0.086	10.4	COc1nn(C)cc1C(=O)N[S@@]1(=O)=NC(=O)c2ccc3c(c2)N(C[C@@H]2CC[C@H]2[C@@](CN2CCN4CCOC[C@@H]4C2)(OC)/C=C/C[C@H](C)C1)C[C@@]1(CCCc2cc(Cl)ccc21)CO3 [Example 112]
–	0.084	47.6	COc1nc(N[S@@]2(=O)=NC(=O)c3ccc4c(c3)N(C[C@@H]3CC[C@H]3[C@@H](OC)/C=C/C[C@H](C)C2)C[C@@]2(CCCc3cc(Cl)ccc32)CO4)c2cn(C)nc2n1 [Example 10]
–	0.083	17.3	CO[C@H]1/C=C/C[C@H](C)C[S@@](=O)(NC(=O)c2cn(C)nc2N2CCN3CCOC[C@@H]3C2)=NC(=O)c2ccc3c(c2)N(C[C@@H]2CC[C@H]21)C[C@@]1(CCCc2cc(Cl)ccc21)CO3 [Example 23]
–	0.072	88.9	COc1nn(C)cc1C(=O)N[S@@]1(=O)=NC(=O)c2ccc3c(c2)N(C[C@@H]2CC[C@H]2[C@H]2OCC[C@@H]2C[C@H](OC)[C@H](C)C1)C[C@@]1(CCCc2cc(Cl)ccc21)CO3 (mixture of isomers) [Example 155]
–	0.071	198	COc1nn(C)cc1C(=O)N[S@@]1(=O)=NC(=O)c2ccc3c(c2)N(C[C@@H]2CC[C@H]2[C@@H](OC)C[C@H]2CC(O)O[C@@H]2[C@H](C)C1)C[C@@]1(CCCc2cc(Cl)ccc21)CO3 (stereo partly drawn) [Example 139]
–	0.07	24.1	CO[C@H]1/C=C/C[C@H](C)C[S@@](=O)(NC(=O)c2cc3n(c2)CCOC3)=NC(=O)c2ccc3c(c2)N(C[C@@H]2CC[C@H]21)C[C@]1(CO3)SCCc2cc(Cl)ccc21 [Example 179]
–	0.061	26.5	CO[C@H]1/C=C/C[C@H](C)C[S@@](=O)(Nc2ncnc3nn(C)cc23)=NC(=O)c2ccc3c(c2)N(C[C@@H]2CC[C@H]21)C[C@@]1(CCCc2cc(Cl)ccc21)CO3 [Example 8]
–	0.06	31.9	CO[C@H]1/C=C/C[C@H](C)C[S@@](=O)(NC(=O)N[C@H]2C[C@@H]2OC)=NC(=O)c2ccc3c(n2)N(C[C@@H]2CC[C@H]21)C[C@@]1(CCCc2cc(Cl)ccc21)CO3 (mixture of isomers) [Example 188]
–	0.057	18.5	C[C@H]1C/C=C/[C@H](O)[C@@H]2CC[C@H]2CN2C[C@@]3(CCCc4cc(Cl)ccc43)COc3ccc(cc32)C(=O)N=[S@](=O)(Nc2nc(N)nc3nn(C)cc23)C1 [Example 32]
170	0.055	–	COc1nn(C)cc1C(=O)N[S@@]1(=O)=NC(=O)c2ccc3c(c2)N(C[C@@H]2CC[C@H]2[C@@H](OC)/C=C/[C@H](OCCn2ccnc2)[C@H](C)C1)C[C@@]1(CCCc2cc(Cl)ccc21)CO3 [Example 88]
67.9	0.047	–	COc1nn(C)cc1C(=O)N[S@@]1(=O)=NC(=O)c2ccc3c(c2)N(C[C@@H]2CC[C@H]2[C@H](OC)/C=C/[C@@](C)(O)[C@H](C)C1)C[C@@]1(CCCc2cc(Cl)ccc21)CO3 [Example 121]
35.4	0.038	–	COc1nn(C)cc1C(=O)N[S@@]1(=O)=NC(=O)c2ccc3c(c2)N(C[C@@H]2CC[C@H]2[C@@](O)(CC(=O)N2CCN(C)CC2)/C=C/C[C@H](C)C1)C[C@@]1(CCCc2cc(Cl)ccc21)CO3 [Example 100]
